Tests used:
[1] = wn = mass fraction of the nth substance listed; details: 298.15 K, 100 kPa, Liquid; for viscosity: Falling or rolling sphere viscometry; for mass density: Vibrating tube method
[2] = refractive index (Na D-line) (dimensionless); wn = mass fraction of the nth substance listed; details: 298.15 K, 100 kPa, Liquid, Standard Abbe refractometry
[3] = refractive index (Na D-line) (dimensionless); details: 298.15 K; 100 kPa; Liquid; Standard Abbe refractometry
[4] = 298.15 K; 100 kPa; Liquid; Falling or rolling sphere viscometry

O=C([O-])[C@H](O)[C@@H](O)C(=O)[O-].[K+].[K+] [dipotassium L-tartrate] + O
Details | mass density, [1] [kg/m3] | refractive index, [2] | viscosity, [1] [mPa·s]
w1 = 0.02 | 1006 | 1.3345 | 0.929
w1 = 0.04 | 1019.6 | 1.3374 | 0.965
w1 = 0.06 | 1033.3 | 1.3403 | 0.998
w1 = 0.08 | 1046.9 | 1.3432 | 1.04
w1 = 0.1 | 1060.6 | 1.3461 | 1.09
w1 = 0.15 | 1094.7 | 1.3533 | 1.191
w1 = 0.2 | 1128.9 | 1.3606 | 1.313
w1 = 0.25 | 1163 | 1.3678 | 1.46
w1 = 0.3 | 1197.1 | 1.375 | 1.59
w1 = 0.4 | 1265.4 | 1.3895 | 1.91

O [water]
Details | refractive index | viscosity [mPa·s]
[3] | 1.3327 | –
[4] | – | 0.894

O [water] + O=C([O-])[C@H](O)[C@@H](O)C(=O)[O-].[K+].[K+]
w2 = 0
Details | refractive index | viscosity [mPa·s]
[1] | – | 0.894
[2] | 1.3327 | –
